Entries after “also recorded” stand apart in the source; their conditions may differ.
Key:
[1] = displacement of a pre-adsorbed FL-BP from CaP-coated culture wells by a different FL-BP; format: binding; conditions: FIG. 1 Panel A
Experimental: FIG. 1, Panels A-C, illustrates displacement of an adsorbed fluorescently labeled BP (FL-BP) from a hydroxyapatite surface mimicking bone by a different fluorescently labeled BP. Synthetic bone/dentine (calcium phosphate, CaP)-coated culture wells were pre-treated with either ROX-RIS or 5-FAM-RIS (50 μM) After challenged by serially diluted doses of 5-FAM-RIS or ROX-RIS (from 0 to 50 μM), respectively, Carboxyl-X-Rhodamine (ROX) and carboxyfluorescein (FAM) fluorescence intensities of the CaP-coated wells were measured. Panel A: ROX-RIS in CaP (first bars of each set) remained near the pre-adsorbed 50 μM level until 5 μM or greater concentrations of 5-FAM-RIS challenged. In contrast, 5-FAM-RIS (second bars of each set) was rapidly displaced by concentrations of ROX-RIS as low as 1 μM. Panel B: Pre-adsorbed FAM-RIS was replaced by ROX-RIS between 10 μM to 50 μM. Panel C: The quantitative measurement of FAM and ROX fluorescent signals was conducted by standardized fluorescent biophotonics and a proprietary program (LAS3000, FUJIFILM, Tokyo, Japan).

[2] = system: ZOL-induced mouse BRONJ model; assay: ZOL-induced mouse BRONJ/ONJ model (ZOL IV injection followed by maxillary first molar extraction); format: in vivo; conditions: for development of ONJ-like lesions at the tooth extraction sites: ZOL 500 μg/kg IV, intra-oral injection one day prior to extraction, 14 days after extraction, FIG. 21; for histology of maxilla at the tooth extraction site: ONJ-like lesion: 2 weeks after extraction, one time oral injection in ZOL-mice, FIG. 20; for development of ONJ-like lesions: FIG. 19C; for ZOL-injected mice with open oral wound: 500 μg/Kg ZOL via tail vein
Experimental: AF647-ZOL was applied by intra-oral injection or IV injection 1 day prior to tooth extraction. FIG. 16B are images of mouse maxilla and the oral mucosa inflammation and swelling (white dotted lines, left and right panels) with various degrees of jawbone exposure (arrow) at the tooth extraction site of ZOL-treated mice (BRONJ control: n−4). […]
Panel A is a diagram of the experimental time line. Mice treated by IV injection of ZOL (500 μg/kg) received an intra-oral injection of AF647-ZOL, MHDP or ETI (etidronate) one day prior to maxillary 1″ molar extraction. The development of ONJ was evaluated 14 days after tooth extraction.
The C57BL/6J (B6) mice model of ONJ is used. The consistent tissue source in this study is mouse maxillary bone with or without tooth extraction, as well as femurs, mandibles and L4/L5 lumber bones. Tooth extraction animal models for studying wound healing in mice have been well established in our and other laboratories. Systemic bisphosphonate treatment is accomplished by IV injection and the proposed local application of FL-BP is accomplished by intraoral injection to gingival/palatal tissue of mouse maxilla. Mice are subjected to maxillary molar extraction. After anesthesia and vital signs checked, the animal is placed on a bed supporting the isoflurane tubing while keeping the mouth opening. Ophthalmic ointment (bland, e.g., Lacrilube) is applied. The maxillary molar area is wiped with 0.12% Chlorhexidine gluconate solution (Peridex, oral rinse). An autoclaved dental explorer is used as an exodontia elevator after careful reflection of the cervical mucosa to minimize post-extraction discomfort. An autoclaved cotton swab is placed on the extraction socket until the initial blood coagulation is established. Maxillary 1st molar is then extracted unilaterally from so that the remaining untreated side can be utilized for chewing. In our previous experiments, the entire procedure takes about 5-15 minutes. […]
In a preliminary study female B6 mice were injected 500 μg/Kg ZOL (equivalent to 200 μl of 350 μM ZOL) via tail vein and one week later, maxillary left first molar was extracted. […]
Therefore, as schematically shown in FIG. 19B mouse maxillae were treated with ZOL and then either 2 μg of MHDP was orally injected to the site of the molar to be extracted or 100 μg of MHDP was IV injected and the sites of molar extraction of treated mouse maxilla were compared to controls.

Rap1A prenylation = assay: Western blot of Rap1A prenylation in J774 macrophages; format: cell-based, mouse; conditions: 10 μM and 100 μM dose
[3] = system: mouse femur trabecular bone; assay: micro CT evaluation of mouse femur trabecular structure (anti-resorptive function in vivo); conditions: for anti-resorptive effect: vs saline (0.9% NaCl) vehicle
Experimental: FIG. 19A to FIG. 19C present evidence that certain alkylidene bisphosphonates can be used to displace active BPs in vivo in the mouse model. […] FIG. 19B outlines the protocol for the experiments using MHDP to treat C57B16 mice. An ONJ-like lesion was generated by ZOL IV injection into the mouse, followed by extraction of the maxillary first molar. One day prior to the tooth extraction, a group of mice received intra-oral injection of 2 μg MHDP and another group received IV injection of 100 μg MHDP. FIG. 19C presents images of the mouse maxilla.
This study determines the anti-resorptive function of FL-BP in vivo, as compared to ZOL. Female B6 mice were injected with 50 μM ZOL (n=6), 50 μM FL-BP (n=6) or 0.9% NaCl vehicle solution (control: n=6) via tail vein. Three weeks later, mice were euthanized and femur and L4/L5 were harvested. After fixed in 10% buffered formalin, bone samples were subjected to micro CT analysis. The anti-resorptive function were quantitatively established by the trabecular bone three-dimensional morphometry (e.g., BV/TV, Tb.N, Tb.Th, TbSp). FL-BPs with minimal or no pharmacological BP function are used.
Mice were IV injected with 0.9% NaCl (vehicle solution), ZOL (184 μM×100 μL=5.0 μg/animal) or AF647-ZOL (184 μM×100 μL=22.0 μg/animal) and femurs were harvested 2 weeks after injection. The micro CT data were compared.

[4] = hydroxyapatite (HAP) binding affinity, relative retention times normalized to RIS; conditions: FIG. 7
Experimental: FIG. 7 is a bar graph showing hydroxyapatite (HAP) binding affinity of Zoledronate (ZOL), ROX-RIS, 5-FAM-ZOL, and AF647-ZOL. Relative retention times were normalized to RIS.
Hydroxyapatite assays indicate that the FL-BPs generally retain substantial affinity for bone mineral that reflect the affinity of the BP component and to a lesser extent, the affinity of the conjugated fluorophore. Hydroxyapatite (Macro-Prep® Ceramic hydroxyapatite Type II […]) was obtained from Bio-Rad Laboratories, Inc. Hercules, Calif. Accurately weighed hydroxyapatite powder (1.4-1.6 mg) was suspended in a 4 mL clear vial containing the appropriate volume of assay buffer (0.05% (wt/vol) Tween20, 10 μM EDTA and 100 mM HEPES pH=7.4) for 3 hours. Hydroxyapatite was then incubated with increasing amounts of FAM-BP and ROX-BP (0, 25, 50, 100, 200, and 300 μM). Samples were gently shaken for 3 hours at 37° C. in appropriate volume of assay buffer (0.05% (wt/vol) Tween20, 10 μM EDTA and 100 mM HEPES pH=7.4). Subsequent to the equilibrium period, the vials were centrifuged at 10,000 rpm for 5 minutes to separate the solids and the supernatant. 0.3 mL of the supernatant was collected and the equilibrium solution concentration is measured by using Shimadzu UV-VIS spectrometer. For the calibration series, FL-BP probe standards were prepared by serial dilution from the stock solution with the same isotherm buffer to give the range from 0 to 400 μM. Calibration curves were constructed using standard solutions of the target FL-BPs. Fluorescent emission can also be used to calculate the binding parameters. Nonspecific binding was measured with a similar procedure in the absence of hydroxyapatite as control. Binding parameters (Kd and Bmax, represent the equilibrium dissociate constant and maximum number of binding sites, respectively) were calculated using the PRISM program (Graphpad, USA). The binding parameters of each compound was measured in 5 independent experiments. […]

mouse maxilla = assay: preliminary study: fluorescent imaging of mouse maxilla after 5-FAM-ZOL IV or ROX-RIS intraoral injection; format: in vivo; conditions: single intraoral 25 μl of 50 μM; 2 days after
Experimental: In a preliminary study female C57B16/J (B6) mice (8 weeks old) received either a single IV injection via tail vein of 200 μl of 350 μM 5-FAM-ZOL (5-FAM-ZOL, #BV111001, BioVinc LLC, Culver City, Calif.) or a single intraoral injection of 25 μl of 50 μM ROX-RIS (5(6)-ROX-RIS, #BV150101, BioVinc LLC, CA) to gingival/palatal tissue at maxillary left first molar (white arrow in FIG. 11). […], mice were euthanized 3 weeks after the IV injection of 5-FAM-ZOL or 2 days after the intraoral injection of ROX-RIS. Skulls (containing maxilla) were harvested and standardized fluorescent biophotonics image was obtained using an excitation wavelength of 460 nm and the 515 nm filter (LAS3000, FUJIFILM Corp).

[5] = IV 184 μM×100 μL, femurs 2 weeks after injection

## O=C(NCC(O)C[n+]1cccc(CC(O)(P(=O)(O)O)P(=O)(O)O)c1)c1ccc(-c2c3ccc(=O)cc-3oc3cc(O)ccc23)c(C(=O)O)c1 (centres unmarked) [5-FAM-RIS]
[1]; CaP wells pre-treated with 50 μM ROX-RIS
  concentration of challenging 5-FAM-RIS up to which pre-adsorbed ROX-RIS remained near the pre-adsorbed level: ≥ 5 µM

## CC(O)(P(=O)(O)O)P(=O)(O)O [ETI, ethylene hydroxyl bisphosphonate, reference compound]
[2]
  development of ONJ-like lesions at the tooth extraction sites: appeared to be prevented
Rap1A prenylation
  inhibition of Rap1A prenylation (accumulated unprenylated Rap1A): not

## O=P(O)(O)C(O)P(=O)(O)O [MHDP, methylene hydroxyl bisphosphonate]
[2]
  histology of maxilla at the tooth extraction site: ONJ-like lesion: did not develop an ONJ-like lesion
  development of ONJ-like lesions at the tooth extraction sites: appeared to be prevented
[2]; IV injection of 100 μg one day prior to extraction
  development of ONJ-like lesions: prevented the development of ONJ-like lesions
[2]; intra-oral injection of 2 μg one day prior to extraction
  development of ONJ-like lesions: prevented the development of ONJ-like lesions
Rap1A prenylation
  inhibition of Rap1A prenylation (accumulated unprenylated Rap1A): not
[3]; FIG. 19A
  anti-resorptive effect: lack of anti-resorptive activity; also recorded: lack of anti-resorptive effect

## O=C(NCC(O)C[n+]1cccc(CC(O)(P(=O)(O)O)P(=O)(O)O)c1)c1ccc(C2=c3cc4c5c(c3Oc3c2cc2c6c3CCCN6CCC2)CCC[N+]=5CCC4)c(C(=O)O)c1 (centres unmarked) [ROX-RIS]
[1]; CaP wells pre-treated with 50 μM 5-FAM-RIS
  concentration of challenging ROX-RIS that displaced pre-adsorbed 5-FAM-RIS: ≥ 1 µM
[4]
  influence of the fluorophore on hydroxyapatite affinity: enhancement
Mouse maxilla
  fluorescent signal in palatal bone around the injection site: localized red fluorescent signal

## O=P(O)(O)C(O)(Cn1ccnc1)P(=O)(O)O [ZOL, zoledronate]
[2]; 2 weeks of tooth extraction
  ZOL-injected mice with open oral wound: 100%
[2]; 4 weeks of tooth extraction
  ZOL-injected mice with open oral wound: 50%
[2]
  histology of maxilla at the tooth extraction site: ONJ-like lesion: development of an ONJ-like lesion
[2]; ZOL IV, then maxillary first molar extraction
  tooth extraction wound healing in ZOL-injected mice: delayed wound healing with gingival swelling and jawbone exposure
Rap1A prenylation
  inhibition of Rap1A prenylation (accumulated unprenylated Rap1A): inhibited Rap1A prenylation
[3]; FIG. 19A, trabecular bone
  bone volume over tissue volume (BV/TV): increased
  connectivity density (ConnD): decreased
[3]; FIG. 19A
  anti-resorptive effect: significant anti-resorptive effect
[3]; [5]
  connectivity density: nearly doubled
  volume of femur trabecular bone (BV/TV): nearly doubled
[3]; IV 184 μM×100 μL, femurs 2 weeks after injection, FIG. 14
  bone structural parameters: significantly increased
